Results on 2 substances are retold here after patent publication US20260174858A1, “TARGETING THE m6A MRNA DEMETHYLASE FTO” (University of Virginia Patent Foundation, priority 2022, published 2026).

d = 2'-deoxy (DNA); r = 2'-OH (RNA); {P} = phosphate

For the data set, the system named is mouse BMDMs. The experiment in a line: VEGFA release in mouse BMDMs (ELISA). Format: cell-based. The conditions noted are these: ELISA. Here is the method:
Primary WT or mutant mouse bone marrow derived macrophages (BMDMs) were isolated as previously described (4). BMDMs were cultured in IMDM (Gibco) basal medium containing 10% fetal bovine serum (FBS), 30% L929 supernatants, nonessential amino acids, sodium pyruvate, 2-mercaptoethanol, and antibiotics. THP-1 cells were cultured in RPMI 1640 medium with 10% FBS and antibiotics. Human RPE cells were isolated as previously described and cultured in DMEM medium with 10% FBS and antibiotics. All cells were maintained at 37° C. in a 5% CO2 environment.
The RPE-choroid complex was isolated from mouse eyes on day 3 after laser injury and treatment with FTO inhibitor or vehicle. Eye tissues were lysed by sonication with immunoprecipitation assay (RIPA) buffer (Sigma-Aldrich, R0278, USA) containing protease inhibitor (Sigma-Aldrich, 11836170001, USA), on ice for 15 minutes. The lysate was centrifuged at 20,000×g for 15 minutes at 4° C., and total protein in the lysates was quantified using the Thermo Scientific™ Pierce™ BCA™ Protein Assay (Fisher Scientific, PI23225, USA). VEGFA protein levels in the supernatants were measured by VEGF DuoSet ELISA (R&D Systems, DY493, USA), following the manufacturer's instructions. Mouse BMDMs or human THP-1 cells (5×10^5 cells per well) were plated into six-well plates in complete medium and allowed to adhere overnight. Cells were then incubated for 24 hours in the absence or presence of various doses of FTO inhibitor or METTL3 inhibitors (STM2457, Selleck Chemicals). […] The siRNAs (siFto: 5′-P.G.A.G.G.A.U.C.C.A.A.G.G.C.A.A.A.G.A.U.dT.dT 3′ (SEQ ID NO: 38); siCtrl: 5′-P.U.A.A.G.G.C.U.A.U.G.A.A.G.A.G.A.U.dT.dT 3′; SEQ ID NO: 39), were designed and synthesized by GE Healthcare Dharmacon, were transfected twice with BMDMs by using DharmaFECT 4 Transfection Reagent (Dharmacon, T-2004, USA). VEGFA levels in the supernatants were measured by mouse or human VEGF DuoSet ELISA (R&D Systems, DY493 or DY293B, USA), following the manufacturer's instructions.

For the substance STM2457, the “VEGFA release with METTL3 inhibitor” value (various doses, 24 hours) was “dose-dependent increase in VEGFA release”.
For “siFto: siFto: 5′-P.G.A.G.G.A.U.C.C.A.A.G.G.C.A.A.A.G.A.U.dT.dT 3′ (SEQ ID NO: 38), Dharmacon (sense GAGGAUCCAAGGCAAAGAUTT; sugars from the 5' end r19 d2, 5' {P}, backbone not given here)”, for the setting “BMDMs transfected with siRNA targeting Fto vs control”, the “VEGFA release after Fto knockdown” value was “significantly dampened macrophage mediated VEGFA release”.
